Measured values: ChEMBL document CHEMBL4834487, “Model studies towards prodrugs of the glutamine antagonist 6-diazo-5-oxo-l-norleucine (DON) containing a diazo precursor” (Bioorg Med Chem Lett, 2021)

Columns and labels:
[1] = Stability of the compound in DMSO measured within 12 hrs; format: physicochemical
[2] = Metabolic stability in pig liver homogenate assessed as parent compound remaining measured after 30 mins; format: ADME, tissue-based, Sus scrofa; details: read-out: Stabilty
[3] = Stability of the compound in DMSO measured for 24 hrs; format: physicochemical
[4] = Stability of compound in potassium phosphate buffer at pH 7.4 assessed as parent compound remaining measured after 30 mins; format: physicochemical; details: read-out: Stabilty
[5] = Metabolic stability in pig brain homogenate assessed as parent compound remaining measured after 30 mins; format: ADME, tissue-based, Sus scrofa; details: read-out: Stabilty
[6] = Drug metabolism in pig brain homogenate assessed as N-acetyl-6-Diazo-5-oxo-L-norleucin formation by ion chromatogram analysis; format: ADME, tissue-based, Sus scrofa
[7] = Drug metabolism in pig brain homogenate assessed as 6-Diazo-5-oxo-L-norleucin formation by ion chromatogram analysis; format: ADME, tissue-based, Sus scrofa
[8] = Stability of compound in sodium acetate buffer at pH 4 assessed as parent compound remaining measured after 60 mins; format: physicochemical; details: read-out: Stabilty

Stabilty [1]	remaining at 0.5 h [2] [%]	Stabilty [3]	remaining at 0.5 h [4] [%]	remaining at 0.5 h [5] [%]	Drug metabolism [6]	Drug metabolism [7]	remaining at 1 h [8] [%]	Compound
Unstable								CC(=O)NC(CCC(=O)CN(N=O)C(=O)OCc1ccccc1)C(=O)O (stereo not drawn)
	< 5	Stable	< 5	< 5	Metabolite_Detected	Metabolite_Notdetected	> 95	CC(=O)N[C@@H](CCC(=O)Cn1nnc2c(C(N)=O)ncn2c1=O)C(=O)O
